# Measured values reported in ChEMBL document CHEMBL4819072, “Radioligand and computational insight in structure - Activity relationship of saccharin derivatives being ipsapirone and revospirone analogues” (Bioorg Med Chem Lett, 2021).
# Experiments:
# [1] = biological target: T1, 5-hydroxytryptamine receptor 1A (Homo sapiens, UniProt P08908); test: Displacement of [3H]-[…] from human 5-HT1AR expressed in human HEK293 cells; assay type: cell-based
# T1 sequence (P08908 whole entry): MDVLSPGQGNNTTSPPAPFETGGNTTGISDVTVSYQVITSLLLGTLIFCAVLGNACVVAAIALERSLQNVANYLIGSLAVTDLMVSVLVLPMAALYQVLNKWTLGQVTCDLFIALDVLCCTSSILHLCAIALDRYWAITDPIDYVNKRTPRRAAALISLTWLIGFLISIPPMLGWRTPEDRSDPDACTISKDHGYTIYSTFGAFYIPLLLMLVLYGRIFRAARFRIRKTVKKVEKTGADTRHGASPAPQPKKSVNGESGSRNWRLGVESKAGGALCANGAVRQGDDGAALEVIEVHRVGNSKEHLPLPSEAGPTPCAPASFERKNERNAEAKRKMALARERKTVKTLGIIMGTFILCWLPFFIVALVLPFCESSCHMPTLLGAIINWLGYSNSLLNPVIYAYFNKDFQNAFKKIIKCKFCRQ
# [2] = biological target: T2, D(4) dopamine receptor (Homo sapiens, UniProt P21917); test: Binding affinity to human D4R
# T2 sequence (P21917 whole entry): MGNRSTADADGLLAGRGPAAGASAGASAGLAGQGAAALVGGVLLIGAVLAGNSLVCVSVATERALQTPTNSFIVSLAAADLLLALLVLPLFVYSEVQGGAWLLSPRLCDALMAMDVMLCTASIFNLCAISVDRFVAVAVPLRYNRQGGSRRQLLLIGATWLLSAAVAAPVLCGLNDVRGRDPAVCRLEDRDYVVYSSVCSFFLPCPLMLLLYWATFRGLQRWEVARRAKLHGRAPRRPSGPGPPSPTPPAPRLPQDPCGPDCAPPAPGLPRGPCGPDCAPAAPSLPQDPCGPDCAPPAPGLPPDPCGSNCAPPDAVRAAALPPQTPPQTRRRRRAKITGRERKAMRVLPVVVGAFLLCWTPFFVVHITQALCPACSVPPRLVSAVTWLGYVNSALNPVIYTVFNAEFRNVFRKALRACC
# [3] = biological target: 5-hydroxytryptamine receptor 7 (Homo sapiens, UniProt P34969); test: Displacement of [3H]-5CT from human 5-HT7R expressed in human HEK293 cells; assay type: cell-based
# Sequence of 5-hydroxytryptamine receptor 7 (P34969 whole entry): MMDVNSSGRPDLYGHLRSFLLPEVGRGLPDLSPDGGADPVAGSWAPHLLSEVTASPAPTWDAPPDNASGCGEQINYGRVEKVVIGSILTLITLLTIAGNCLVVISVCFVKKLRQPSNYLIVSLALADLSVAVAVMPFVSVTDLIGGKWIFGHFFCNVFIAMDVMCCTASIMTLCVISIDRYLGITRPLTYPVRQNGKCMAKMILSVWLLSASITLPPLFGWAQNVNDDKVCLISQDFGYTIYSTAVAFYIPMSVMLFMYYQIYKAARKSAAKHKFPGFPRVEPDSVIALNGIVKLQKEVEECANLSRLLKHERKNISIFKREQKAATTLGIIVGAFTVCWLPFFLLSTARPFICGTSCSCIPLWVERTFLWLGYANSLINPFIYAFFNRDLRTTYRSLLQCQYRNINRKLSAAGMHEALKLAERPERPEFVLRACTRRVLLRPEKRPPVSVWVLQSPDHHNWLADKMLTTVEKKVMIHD
# [4] = biological target: 5-hydroxytryptamine receptor 6 (Homo sapiens, UniProt P50406); test: Displacement of [3H]-LSD from human 5-HT6R expressed in human HEK293 cells; assay type: cell-based
# Sequence of 5-hydroxytryptamine receptor 6 (P50406 whole entry): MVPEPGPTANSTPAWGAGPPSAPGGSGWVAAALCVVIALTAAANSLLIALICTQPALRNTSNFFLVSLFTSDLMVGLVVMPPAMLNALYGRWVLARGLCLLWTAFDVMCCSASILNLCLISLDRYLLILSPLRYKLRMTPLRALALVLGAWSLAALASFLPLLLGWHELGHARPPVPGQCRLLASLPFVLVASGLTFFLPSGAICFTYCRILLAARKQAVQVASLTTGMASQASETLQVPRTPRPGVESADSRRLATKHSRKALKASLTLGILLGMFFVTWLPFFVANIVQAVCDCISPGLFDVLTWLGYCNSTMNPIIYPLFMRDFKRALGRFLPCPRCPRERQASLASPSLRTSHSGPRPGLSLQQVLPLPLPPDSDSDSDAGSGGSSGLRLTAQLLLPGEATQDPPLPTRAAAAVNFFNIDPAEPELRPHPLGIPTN
# [5] = biological target: T3, Adrenergic receptor alpha-1 (Homo sapiens, UniProt P35348+P25100+P35368); test: Binding affinity to human adrenergic receptor alpha1; assay type: protein assay
# T3 sequence (P35348 whole entry): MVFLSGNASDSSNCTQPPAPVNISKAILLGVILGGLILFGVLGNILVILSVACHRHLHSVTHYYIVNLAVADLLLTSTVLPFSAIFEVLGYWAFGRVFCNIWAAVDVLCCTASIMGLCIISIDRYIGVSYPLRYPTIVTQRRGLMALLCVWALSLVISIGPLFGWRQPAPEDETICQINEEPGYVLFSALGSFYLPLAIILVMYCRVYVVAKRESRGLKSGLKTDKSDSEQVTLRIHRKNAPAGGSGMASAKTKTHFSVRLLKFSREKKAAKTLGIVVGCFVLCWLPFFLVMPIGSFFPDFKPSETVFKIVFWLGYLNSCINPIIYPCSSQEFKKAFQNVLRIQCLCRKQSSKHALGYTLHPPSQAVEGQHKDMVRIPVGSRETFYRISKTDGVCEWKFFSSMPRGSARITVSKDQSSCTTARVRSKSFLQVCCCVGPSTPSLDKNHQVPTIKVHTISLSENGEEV
# T3 sequence (P25100 whole entry): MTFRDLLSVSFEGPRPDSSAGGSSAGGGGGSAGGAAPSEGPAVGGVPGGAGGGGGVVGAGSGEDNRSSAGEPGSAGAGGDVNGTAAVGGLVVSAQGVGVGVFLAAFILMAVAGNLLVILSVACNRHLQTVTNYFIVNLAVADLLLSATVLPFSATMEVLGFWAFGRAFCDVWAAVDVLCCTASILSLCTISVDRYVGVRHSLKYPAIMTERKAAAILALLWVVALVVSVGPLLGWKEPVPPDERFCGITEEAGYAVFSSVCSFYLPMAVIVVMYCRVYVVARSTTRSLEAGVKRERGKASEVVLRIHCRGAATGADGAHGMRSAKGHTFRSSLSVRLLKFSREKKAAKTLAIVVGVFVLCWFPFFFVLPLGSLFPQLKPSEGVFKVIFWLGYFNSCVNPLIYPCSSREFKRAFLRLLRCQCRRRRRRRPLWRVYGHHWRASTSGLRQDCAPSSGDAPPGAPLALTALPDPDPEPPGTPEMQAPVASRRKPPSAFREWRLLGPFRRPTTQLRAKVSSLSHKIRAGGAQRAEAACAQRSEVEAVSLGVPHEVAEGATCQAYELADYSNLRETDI
# T3 sequence (P35368 whole entry): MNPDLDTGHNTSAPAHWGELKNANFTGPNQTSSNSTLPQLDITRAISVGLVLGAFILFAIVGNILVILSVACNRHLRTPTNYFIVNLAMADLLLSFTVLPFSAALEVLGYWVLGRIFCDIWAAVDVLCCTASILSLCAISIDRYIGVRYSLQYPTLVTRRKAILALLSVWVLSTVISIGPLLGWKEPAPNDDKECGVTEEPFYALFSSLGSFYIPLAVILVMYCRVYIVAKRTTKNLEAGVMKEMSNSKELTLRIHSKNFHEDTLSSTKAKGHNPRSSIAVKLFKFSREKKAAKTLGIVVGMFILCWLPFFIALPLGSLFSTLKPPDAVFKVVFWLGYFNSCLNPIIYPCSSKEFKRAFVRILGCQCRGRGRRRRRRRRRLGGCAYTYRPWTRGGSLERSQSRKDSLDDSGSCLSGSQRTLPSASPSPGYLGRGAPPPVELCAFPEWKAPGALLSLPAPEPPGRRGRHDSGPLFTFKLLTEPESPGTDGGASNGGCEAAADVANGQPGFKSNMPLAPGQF
# [6] = biological target: 5-hydroxytryptamine receptor 2A (Homo sapiens, UniProt P28223); test: Displacement of [3H]-ketanserin from human 5-HT2AR expressed in CHO cells; assay type: cell-based
# Sequence of 5-hydroxytryptamine receptor 2A (P28223 whole entry): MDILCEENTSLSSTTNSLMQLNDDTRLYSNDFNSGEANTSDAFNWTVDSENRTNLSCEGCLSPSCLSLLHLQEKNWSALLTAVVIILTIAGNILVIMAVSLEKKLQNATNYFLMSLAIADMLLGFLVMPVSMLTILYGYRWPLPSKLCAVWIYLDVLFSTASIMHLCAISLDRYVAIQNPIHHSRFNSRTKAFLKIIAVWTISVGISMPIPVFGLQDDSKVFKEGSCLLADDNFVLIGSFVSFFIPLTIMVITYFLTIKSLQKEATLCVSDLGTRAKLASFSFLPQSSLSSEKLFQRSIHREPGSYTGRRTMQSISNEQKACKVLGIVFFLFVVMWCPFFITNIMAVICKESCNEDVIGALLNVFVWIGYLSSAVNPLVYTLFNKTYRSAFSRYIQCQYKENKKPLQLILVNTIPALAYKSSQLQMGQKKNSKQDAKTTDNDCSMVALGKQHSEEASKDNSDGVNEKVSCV
# [7] = biological target: D(2) dopamine receptor (Homo sapiens, UniProt P14416); test: Displacement of [3H]-raclopride from human D2R expressed in human HEK293 cells; assay type: cell-based
# Sequence of D(2) dopamine receptor (P14416 whole entry): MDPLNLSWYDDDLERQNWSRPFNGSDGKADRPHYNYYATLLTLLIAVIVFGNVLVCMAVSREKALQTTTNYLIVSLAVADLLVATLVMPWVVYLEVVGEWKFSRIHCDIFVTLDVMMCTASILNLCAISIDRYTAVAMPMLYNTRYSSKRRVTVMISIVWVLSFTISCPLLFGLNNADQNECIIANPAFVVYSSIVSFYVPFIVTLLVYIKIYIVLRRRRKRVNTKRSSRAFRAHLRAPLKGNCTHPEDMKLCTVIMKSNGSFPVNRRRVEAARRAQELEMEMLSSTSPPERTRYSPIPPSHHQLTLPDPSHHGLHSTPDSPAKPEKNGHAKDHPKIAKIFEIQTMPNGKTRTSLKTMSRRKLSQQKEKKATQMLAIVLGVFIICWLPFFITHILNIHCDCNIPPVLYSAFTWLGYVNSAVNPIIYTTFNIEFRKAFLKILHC
# [8] = biological target: T4, 5-hydroxytryptamine receptor 2C (Homo sapiens, UniProt P28335); test: Binding affinity to human 5-HT2C
# T4 sequence (P28335 whole entry): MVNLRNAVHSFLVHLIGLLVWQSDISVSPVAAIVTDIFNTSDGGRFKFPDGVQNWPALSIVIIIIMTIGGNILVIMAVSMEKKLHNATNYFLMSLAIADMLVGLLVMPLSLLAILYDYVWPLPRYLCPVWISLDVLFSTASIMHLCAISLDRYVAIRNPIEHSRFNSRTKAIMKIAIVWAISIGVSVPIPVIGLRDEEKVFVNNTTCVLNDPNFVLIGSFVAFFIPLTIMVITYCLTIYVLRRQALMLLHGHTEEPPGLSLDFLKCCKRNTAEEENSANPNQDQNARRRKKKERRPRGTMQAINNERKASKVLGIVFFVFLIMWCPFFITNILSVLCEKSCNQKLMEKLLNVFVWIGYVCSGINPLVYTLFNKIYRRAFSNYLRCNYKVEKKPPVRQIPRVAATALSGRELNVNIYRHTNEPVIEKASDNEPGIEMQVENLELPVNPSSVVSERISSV
Ki [1] [nM],Ki [3] [nM],Ki [4] [nM],Ki [6] [nM],SMILES,also measured
10,–,–,–,O=C1c2ccccc2C(=O)N1CCCCN1CCN(c2ccccc2)CC1,–
143,–,–,–,NC(=O)c1ccccc1OCCCN1CCN(c2ccccc2)CC1,–
–,–,–,–,O=C1c2ccccc2S(=O)(=O)N1CCCCN1CCN(c2ccccc2)CC1,Ki [2]: 136 nM
7.9,1410,16800,15000,O=C1c2ccccc2S(=O)(=O)N1CCCCN1CCN(c2ncccn2)CC1 [IPSAPIRONE],Ki [5]: 229 nM
> 1000,–,–,–,O=C1c2ccccc2C(=O)N1CCN1CCN(c2ccccc2)CC1,–
3.2,–,–,–,COc1cccc(N2CCN(CCCCn3c(=O)oc4ccccc4c3=O)CC2)c1,–
8.5,–,–,–,O=C1c2ccccc2C(=O)N1CCCCCN1CCN(c2ccccc2)CC1,–
22,–,–,–,COc1ccccc1N1CCN(CCCCCCN2C(=O)c3ccccc3C2=O)CC1,–
46,–,–,–,COc1cccc(N2CCN(CCCn3c(=O)oc4ccccc4c3=O)CC2)c1,–
–,–,–,–,O=C1c2ccccc2S(=O)(=O)N1CCCCN1CCN(c2ccc(Cl)cc2)CC1,Ki [2]: 36 nM
–,2510,5710,–,O=C1c2ccccc2S(=O)(=O)N1CCCCCCN1CCN(c2ncccn2)CC1,–
–,–,–,–,COc1ccccc1N1CCN(CCCCN2C(=O)c3ccccc3S2(=O)=O)CC1,Ki [2]: 79 nM
7.2,–,–,–,COc1ccccc1N1CCN(CCCCCN2C(=O)c3ccccc3C2=O)CC1,–
1,372,2660,2580,O=C1c2ccccc2S(=O)(=O)N1CCCCN1CCN(c2cccc(Cl)c2Cl)CC1,Ki [7]: 26 nM
2.8,–,–,–,O=c1oc2ccccc2c(=O)n1CCCCN1CCN(c2ccccc2)CC1,–
2,–,–,–,O=C1c2ccccc2S(=O)(=O)N1CCCN1CCN(c2ncccn2)CC1 [REVOSPIRONE],–
–,487,72,299,O=C1c2ccccc2S(=O)(=O)N1CCCCCCN1CCN(c2cccc(Cl)c2Cl)CC1,–
200,–,–,–,O=C1c2ccccc2C(=O)N1CCCN1CCN(c2ccccc2)CC1,–
16,36,101,105,O=C1c2ccccc2S(=O)(=O)N1CCCCCN1CCN(c2cccc3ccccc23)CC1,Ki [7]: 20 nM

Ki [1] [nM],Ki [3] [nM],Ki [4] [nM],Ki [6] [nM],SMILES,also measured
38,–,–,–,COc1cccc(N2CCN(CCCCOc3ccccc3C(N)=O)CC2)c1,–
77,97,10100,4750,COc1ccccc1N1CCN(Cc2ccc(CN3C(=O)c4ccccc4S3(=O)=O)cc2)CC1,Ki [7]: 2 nM
–,487,72,299,O=C1c2ccccc2S(=O)(=O)N1CCCCCCN1CCN(c2ccc(Cl)cc2)CC1,–
16,148,1840,313,O=C1c2ccccc2S(=O)(=O)N1CCCCCN1CCN(c2ccccc2)CC1,Ki [7]: 165 nM
4,–,–,–,COc1cccc(N2CCN(CCCCCOc3ccccc3C(N)=O)CC2)c1,–
402,–,–,–,O=c1oc2ccccc2c(=O)n1CCCN1CCN(c2ccccc2)CC1,–
6,2670,7100,6310,O=C1c2ccccc2S(=O)(=O)N1CCCCCN1CCN(c2ncccn2)CC1,Ki [7]: 954 nM
3,–,–,–,COc1ccccc1N1CCN(CCCCCCOc2ccccc2C(N)=O)CC1,–
13,179,2630,1440,O=C1c2ccccc2S(=O)(=O)N1CCCCCN1CCN(c2ccccn2)CC1,Ki [7]: 92 nM
3,125,1990,584,COc1ccccc1N1CCN(CCCCCN2C(=O)c3ccccc3S2(=O)=O)CC1,Ki [7]: 20 nM
21,35,1350,162,O=C1c2ccccc2S(=O)(=O)N1CCCCCN1CCN(c2cccc(C(F)(F)F)c2)CC1,Ki [7]: 34 nM
400,–,–,700,O=C1c2ccccc2S(=O)(=O)N1CCCN1CCN(c2cccc(C(F)(F)F)c2)CC1,Ki [8]: > 5000 nM
21,–,–,–,COc1cccc(N2CCN(CCCOc3ccccc3C(N)=O)CC2)c1,–
10,105,779,764,COc1ccccc1N1CCN(CCCCCCN2C(=O)c3ccccc3S2(=O)=O)CC1,Ki [7]: 1 nM
20,–,–,–,COc1cccc(N2CCN(CCCCCn3c(=O)oc4ccccc4c3=O)CC2)c1,–
101,191,703,139,O=C1c2ccccc2S(=O)(=O)N1CCCCCN1CCN(c2ccc(Cl)cc2)CC1,Ki [7]: 254 nM
29,149,197,126,O=C1c2ccccc2S(=O)(=O)N1CCCCCN1CCN(c2cccc(Cl)c2Cl)CC1,Ki [7]: 17 nM
18,–,–,–,COc1cccc(N2CCN(CCCCCCn3c(=O)oc4ccccc4c3=O)CC2)c1,–

SMILES,Ki [1] [nM],Ki [3] [nM],Ki [4] [nM],Ki [6] [nM],also measured
COc1cccc(N2CCN(CCCN3C(=O)c4ccccc4C3=O)CC2)c1,13,–,–,–,–
O=C1c2ccccc2S(=O)(=O)N1CCN1CCN(c2cccc(C(F)(F)F)c2)CC1,> 5000,–,–,–,–
COc1cccc(N2CCN(CCOc3ccccc3C(N)=O)CC2)c1,155,–,–,–,–
O=C1c2ccccc2C(=O)N1CCCCCCN1CCN(c2ccccc2)CC1,1,–,–,–,–
COc1cccc(N2CCN(CCN3C(=O)c4ccccc4C3=O)CC2)c1,> 1000,–,–,–,–
